Results as given in ChEMBL document CHEMBL5715954, “Silencing c-Myc translation as a therapeutic strategy through targeting PI3Kδ and CK1ε in hematological malignancies” (Blood, 2017).

Key:
Design in all cases: scale not given: the % may be the effect or the level left
[1] = biological target: T1, Non-receptor tyrosine-protein kinase TNK1 (Homo sapiens) (UniProt Q13470); assay: Inhibition of human TNK1 assessed as enzyme activity at 1 uM using poly[Glu:Tyr] (4:1) as substrate preincubated for 20 mins followed by [gamma-33P]-ATP addition and measured after 120 mins by radiometric Hot-SpotSM Kinase assay relative to control
T1 sequence (whole entry): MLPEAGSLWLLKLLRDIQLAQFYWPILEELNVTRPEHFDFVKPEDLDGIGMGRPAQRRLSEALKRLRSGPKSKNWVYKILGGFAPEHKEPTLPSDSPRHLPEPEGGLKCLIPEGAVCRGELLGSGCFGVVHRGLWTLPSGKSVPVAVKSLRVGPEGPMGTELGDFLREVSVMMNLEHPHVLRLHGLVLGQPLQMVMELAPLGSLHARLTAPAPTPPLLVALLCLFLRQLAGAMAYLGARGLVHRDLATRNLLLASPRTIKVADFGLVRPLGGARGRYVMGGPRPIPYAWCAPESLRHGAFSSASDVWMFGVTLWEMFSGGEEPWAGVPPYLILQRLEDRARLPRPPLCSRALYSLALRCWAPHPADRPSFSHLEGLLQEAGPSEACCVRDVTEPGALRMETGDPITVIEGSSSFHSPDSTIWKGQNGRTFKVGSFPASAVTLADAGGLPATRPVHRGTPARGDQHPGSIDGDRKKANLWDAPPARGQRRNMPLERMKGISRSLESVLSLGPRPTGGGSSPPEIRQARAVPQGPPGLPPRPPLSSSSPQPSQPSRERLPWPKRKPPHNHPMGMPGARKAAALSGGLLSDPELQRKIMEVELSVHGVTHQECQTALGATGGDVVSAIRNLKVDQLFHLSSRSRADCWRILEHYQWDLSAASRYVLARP

[2] = biological target: T2, Beta-adrenergic receptor kinase 1 (Homo sapiens) (UniProt P25098); assay: Inhibition of human GRK2 assessed as enzyme activity at 1 uM using casein as substrate preincubated for 20 mins followed by [gamma-33P]-ATP addition and measured after 120 mins by radiometric Hot-SpotSM Kinase assay relative to control
T2 sequence (whole entry): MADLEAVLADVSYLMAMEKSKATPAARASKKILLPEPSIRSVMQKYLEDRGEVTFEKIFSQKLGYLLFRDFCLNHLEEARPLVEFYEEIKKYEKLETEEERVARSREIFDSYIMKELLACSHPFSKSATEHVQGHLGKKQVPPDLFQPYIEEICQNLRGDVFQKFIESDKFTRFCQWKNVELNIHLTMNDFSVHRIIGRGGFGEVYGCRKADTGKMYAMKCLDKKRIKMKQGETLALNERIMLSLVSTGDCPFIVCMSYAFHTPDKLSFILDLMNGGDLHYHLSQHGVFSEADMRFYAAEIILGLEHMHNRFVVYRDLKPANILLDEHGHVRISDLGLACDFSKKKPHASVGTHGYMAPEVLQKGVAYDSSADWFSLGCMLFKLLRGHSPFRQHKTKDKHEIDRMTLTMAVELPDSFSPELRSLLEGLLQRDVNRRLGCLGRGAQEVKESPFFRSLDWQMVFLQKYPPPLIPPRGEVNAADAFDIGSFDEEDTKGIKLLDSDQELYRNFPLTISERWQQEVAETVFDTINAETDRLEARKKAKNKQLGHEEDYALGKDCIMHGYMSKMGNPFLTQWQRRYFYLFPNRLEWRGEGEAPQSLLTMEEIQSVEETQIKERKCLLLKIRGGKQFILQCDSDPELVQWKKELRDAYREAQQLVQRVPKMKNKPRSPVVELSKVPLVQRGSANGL

[3] = biological target: T3, G protein-coupled receptor kinase 3 (Homo sapiens) (UniProt P35626); assay: Inhibition of human GRK3 assessed as enzyme activity at 1 uM using casein as substrate preincubated for 20 mins followed by [gamma-33P]-ATP addition and measured after 120 mins by radiometric Hot-SpotSM Kinase assay relative to control
T3 sequence (whole entry): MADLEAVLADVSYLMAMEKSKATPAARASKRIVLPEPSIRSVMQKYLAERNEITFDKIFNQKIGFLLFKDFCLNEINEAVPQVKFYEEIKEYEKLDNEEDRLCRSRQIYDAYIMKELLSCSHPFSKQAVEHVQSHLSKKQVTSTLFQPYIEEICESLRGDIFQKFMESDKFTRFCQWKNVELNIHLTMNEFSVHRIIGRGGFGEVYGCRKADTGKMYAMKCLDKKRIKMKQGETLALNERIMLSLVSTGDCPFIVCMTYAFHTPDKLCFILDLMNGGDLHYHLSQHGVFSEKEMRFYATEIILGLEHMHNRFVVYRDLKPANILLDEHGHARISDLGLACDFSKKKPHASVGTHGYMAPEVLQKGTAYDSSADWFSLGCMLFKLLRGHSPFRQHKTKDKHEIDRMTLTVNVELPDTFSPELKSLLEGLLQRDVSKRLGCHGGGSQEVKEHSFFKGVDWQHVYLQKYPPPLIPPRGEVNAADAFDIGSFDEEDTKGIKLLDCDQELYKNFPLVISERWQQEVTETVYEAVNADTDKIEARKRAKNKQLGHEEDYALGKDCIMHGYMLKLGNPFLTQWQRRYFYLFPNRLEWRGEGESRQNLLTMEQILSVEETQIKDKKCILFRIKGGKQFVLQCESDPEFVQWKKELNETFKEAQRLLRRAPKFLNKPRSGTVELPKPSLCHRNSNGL

[4] = biological target: Misshapen-like kinase 1 (Homo sapiens) (UniProt Q8N4C8); assay: Inhibition of human MINK1 assessed as enzyme activity at 1 uM using myelin basic protein as substrate preincubated for 20 mins followed by [gamma-33P]-ATP addition and measured after 120 mins by radiometric Hot-SpotSM Kinase assay relative to control
Misshapen-like kinase 1 (Homo sapiens), sequence (Q8N4C8 whole entry, looked up): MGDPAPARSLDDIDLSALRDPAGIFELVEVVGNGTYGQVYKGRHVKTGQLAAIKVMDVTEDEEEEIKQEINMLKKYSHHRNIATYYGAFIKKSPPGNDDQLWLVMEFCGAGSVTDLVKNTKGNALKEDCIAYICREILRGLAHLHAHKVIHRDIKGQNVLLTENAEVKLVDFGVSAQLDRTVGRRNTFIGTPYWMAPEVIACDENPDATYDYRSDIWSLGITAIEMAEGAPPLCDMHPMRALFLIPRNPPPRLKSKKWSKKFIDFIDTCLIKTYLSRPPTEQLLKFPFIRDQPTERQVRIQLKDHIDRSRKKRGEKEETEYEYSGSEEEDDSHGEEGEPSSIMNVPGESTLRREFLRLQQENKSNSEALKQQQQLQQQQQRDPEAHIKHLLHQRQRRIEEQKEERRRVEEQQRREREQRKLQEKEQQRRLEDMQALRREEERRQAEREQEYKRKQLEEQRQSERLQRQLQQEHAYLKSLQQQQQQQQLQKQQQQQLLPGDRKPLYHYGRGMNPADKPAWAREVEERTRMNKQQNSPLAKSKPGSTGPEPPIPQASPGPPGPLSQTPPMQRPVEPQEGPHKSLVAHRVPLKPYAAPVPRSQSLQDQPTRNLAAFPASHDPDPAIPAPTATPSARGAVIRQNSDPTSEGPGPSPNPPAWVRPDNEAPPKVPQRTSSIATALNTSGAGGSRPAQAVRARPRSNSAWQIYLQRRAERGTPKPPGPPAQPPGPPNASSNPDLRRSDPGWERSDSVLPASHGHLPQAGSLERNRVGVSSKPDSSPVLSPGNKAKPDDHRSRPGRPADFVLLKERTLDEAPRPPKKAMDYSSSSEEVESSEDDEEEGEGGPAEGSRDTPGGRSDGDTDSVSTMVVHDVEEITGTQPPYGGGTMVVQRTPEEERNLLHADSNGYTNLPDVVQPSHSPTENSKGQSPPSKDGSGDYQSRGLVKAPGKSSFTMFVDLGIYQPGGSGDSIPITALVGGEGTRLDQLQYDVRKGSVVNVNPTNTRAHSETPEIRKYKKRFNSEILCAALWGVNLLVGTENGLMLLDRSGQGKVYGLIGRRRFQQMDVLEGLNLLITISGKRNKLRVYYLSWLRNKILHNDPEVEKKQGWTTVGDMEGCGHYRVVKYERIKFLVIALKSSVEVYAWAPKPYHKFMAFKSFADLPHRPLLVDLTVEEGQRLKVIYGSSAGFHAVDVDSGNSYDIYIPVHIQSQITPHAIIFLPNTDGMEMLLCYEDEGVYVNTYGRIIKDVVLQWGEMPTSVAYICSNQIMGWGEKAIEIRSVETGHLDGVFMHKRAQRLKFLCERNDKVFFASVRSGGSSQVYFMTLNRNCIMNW

[5] = biological target: Myosin-IIIa (Homo sapiens) (UniProt Q8NEV4); assay: Inhibition of human MYO3A assessed as enzyme activity at 1 uM using myelin basic protein as substrate preincubated for 20 mins followed by [gamma-33P]-ATP addition and measured after 120 mins by radiometric Hot-SpotSM Kinase assay relative to control
Myosin-IIIa (Homo sapiens), sequence (Q8NEV4 whole entry): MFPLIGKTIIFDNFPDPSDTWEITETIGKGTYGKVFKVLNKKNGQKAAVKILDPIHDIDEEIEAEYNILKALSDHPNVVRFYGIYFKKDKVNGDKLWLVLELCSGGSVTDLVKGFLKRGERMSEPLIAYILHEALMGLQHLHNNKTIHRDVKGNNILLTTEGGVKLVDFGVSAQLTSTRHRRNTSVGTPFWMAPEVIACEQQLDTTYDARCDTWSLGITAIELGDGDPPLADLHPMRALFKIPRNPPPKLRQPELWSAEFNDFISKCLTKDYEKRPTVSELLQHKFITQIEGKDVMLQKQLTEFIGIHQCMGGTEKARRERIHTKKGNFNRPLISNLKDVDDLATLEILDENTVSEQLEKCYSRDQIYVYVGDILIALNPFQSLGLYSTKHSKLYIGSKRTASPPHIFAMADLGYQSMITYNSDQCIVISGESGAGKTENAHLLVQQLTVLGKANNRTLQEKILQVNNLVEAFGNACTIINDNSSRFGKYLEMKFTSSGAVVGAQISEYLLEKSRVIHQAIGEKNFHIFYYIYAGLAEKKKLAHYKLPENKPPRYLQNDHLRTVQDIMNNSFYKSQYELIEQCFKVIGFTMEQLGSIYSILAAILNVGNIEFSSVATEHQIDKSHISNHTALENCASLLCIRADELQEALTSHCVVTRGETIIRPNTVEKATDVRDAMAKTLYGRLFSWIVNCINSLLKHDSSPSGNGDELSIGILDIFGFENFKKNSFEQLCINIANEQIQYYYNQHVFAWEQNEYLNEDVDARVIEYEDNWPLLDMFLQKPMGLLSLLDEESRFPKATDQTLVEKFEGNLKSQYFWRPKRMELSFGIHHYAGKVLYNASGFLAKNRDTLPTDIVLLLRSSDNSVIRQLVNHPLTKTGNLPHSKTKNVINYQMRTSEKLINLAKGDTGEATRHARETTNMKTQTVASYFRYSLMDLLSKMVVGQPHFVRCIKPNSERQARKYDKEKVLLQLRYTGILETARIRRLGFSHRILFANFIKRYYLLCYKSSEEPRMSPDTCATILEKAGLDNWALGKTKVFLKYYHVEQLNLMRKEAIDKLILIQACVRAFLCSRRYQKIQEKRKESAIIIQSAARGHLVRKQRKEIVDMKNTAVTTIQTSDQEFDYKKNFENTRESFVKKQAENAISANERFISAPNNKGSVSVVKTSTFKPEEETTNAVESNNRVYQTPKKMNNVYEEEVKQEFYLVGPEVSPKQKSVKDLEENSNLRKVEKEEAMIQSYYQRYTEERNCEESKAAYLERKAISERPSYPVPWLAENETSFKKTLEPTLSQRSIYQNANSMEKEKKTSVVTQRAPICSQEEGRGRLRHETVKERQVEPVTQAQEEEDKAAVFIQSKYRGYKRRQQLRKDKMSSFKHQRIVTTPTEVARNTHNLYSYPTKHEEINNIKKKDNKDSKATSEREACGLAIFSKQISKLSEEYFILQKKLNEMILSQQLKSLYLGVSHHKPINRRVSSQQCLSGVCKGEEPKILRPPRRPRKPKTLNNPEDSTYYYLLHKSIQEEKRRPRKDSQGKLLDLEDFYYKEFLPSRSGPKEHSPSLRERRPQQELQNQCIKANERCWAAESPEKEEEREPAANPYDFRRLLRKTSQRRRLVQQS

[6] = biological target: Serine/threonine-protein kinase Nek7 (Homo sapiens) (UniProt Q8TDX7); assay: Inhibition of human NEK7 assessed as enzyme activity at 1 uM using casein as substrate preincubated for 20 mins followed by [gamma-33P]-ATP addition and measured after 120 mins by radiometric Hot-SpotSM Kinase assay relative to control
Serine/threonine-protein kinase Nek7 (Homo sapiens), sequence (Q8TDX7 whole entry, looked up): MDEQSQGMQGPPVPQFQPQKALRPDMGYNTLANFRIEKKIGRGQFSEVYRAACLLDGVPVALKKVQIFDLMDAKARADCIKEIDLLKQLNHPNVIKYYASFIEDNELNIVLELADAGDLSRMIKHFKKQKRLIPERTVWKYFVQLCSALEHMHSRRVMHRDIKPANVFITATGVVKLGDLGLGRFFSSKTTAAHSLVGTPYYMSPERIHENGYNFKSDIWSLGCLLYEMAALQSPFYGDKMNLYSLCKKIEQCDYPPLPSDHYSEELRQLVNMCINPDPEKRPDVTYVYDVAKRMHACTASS

[7] = biological target: Tau-tubulin kinase 2 (Homo sapiens) (UniProt Q6IQ55); assay: Inhibition of human TTBK2 assessed as enzyme activity at 1 uM using myelin basic protein as substrate preincubated for 20 mins followed by [gamma-33P]-ATP addition and measured after 120 mins by radiometric Hot-SpotSM Kinase assay relative to control
Tau-tubulin kinase 2 (Homo sapiens), sequence (Q6IQ55 whole entry): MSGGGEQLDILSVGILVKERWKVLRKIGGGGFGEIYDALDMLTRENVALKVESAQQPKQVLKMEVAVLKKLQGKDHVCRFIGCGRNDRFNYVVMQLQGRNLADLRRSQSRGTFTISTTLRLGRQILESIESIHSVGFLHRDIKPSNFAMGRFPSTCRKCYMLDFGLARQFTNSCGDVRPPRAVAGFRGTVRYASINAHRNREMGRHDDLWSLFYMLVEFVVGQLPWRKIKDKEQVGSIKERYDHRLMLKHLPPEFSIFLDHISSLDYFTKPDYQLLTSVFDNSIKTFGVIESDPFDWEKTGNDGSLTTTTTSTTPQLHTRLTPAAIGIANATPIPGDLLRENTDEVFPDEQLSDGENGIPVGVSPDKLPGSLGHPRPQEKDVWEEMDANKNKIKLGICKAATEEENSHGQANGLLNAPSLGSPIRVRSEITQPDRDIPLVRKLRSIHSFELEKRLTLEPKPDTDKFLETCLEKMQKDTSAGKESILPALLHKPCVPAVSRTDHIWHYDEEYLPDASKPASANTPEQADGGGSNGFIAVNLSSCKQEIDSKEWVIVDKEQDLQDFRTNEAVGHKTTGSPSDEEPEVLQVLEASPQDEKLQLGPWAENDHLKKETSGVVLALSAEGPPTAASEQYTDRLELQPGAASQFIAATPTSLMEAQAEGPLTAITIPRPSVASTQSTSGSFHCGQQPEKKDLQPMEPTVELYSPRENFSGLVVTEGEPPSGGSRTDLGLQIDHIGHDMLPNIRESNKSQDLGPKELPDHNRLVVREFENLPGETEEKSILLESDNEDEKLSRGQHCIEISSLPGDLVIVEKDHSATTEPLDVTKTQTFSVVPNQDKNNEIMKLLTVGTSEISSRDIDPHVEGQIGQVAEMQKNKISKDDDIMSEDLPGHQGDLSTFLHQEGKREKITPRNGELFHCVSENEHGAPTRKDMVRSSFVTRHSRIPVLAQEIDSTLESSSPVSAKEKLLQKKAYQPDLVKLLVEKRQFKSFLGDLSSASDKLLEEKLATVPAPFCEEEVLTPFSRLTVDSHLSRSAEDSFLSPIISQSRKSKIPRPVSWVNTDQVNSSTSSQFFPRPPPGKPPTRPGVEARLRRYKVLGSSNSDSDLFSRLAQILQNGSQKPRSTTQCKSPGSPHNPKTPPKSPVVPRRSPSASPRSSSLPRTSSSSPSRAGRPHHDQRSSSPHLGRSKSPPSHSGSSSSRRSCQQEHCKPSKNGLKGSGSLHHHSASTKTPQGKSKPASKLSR

[8] = biological target: Protein kinase C beta type (Homo sapiens) (UniProt P05771); assay: Inhibition of human PKCb1 assessed as enzyme activity at 1 uM using ERMRPRKRQGSVRRRV as substrate preincubated for 20 mins followed by [gamma-33P]-ATP addition and measured after 120 mins by radiometric Hot-SpotSM Kinase assay relative to control

C[C@H](Nc1ncnc2nc[nH]c12)c1cc2cccc(Cl)c2c(=O)n1-c1ccccc1
Activity [1]: 87.5%
Activity [2]: 94.2%
Activity [3]: 91.5%
Activity [4]: 97%
Activity [5]: 93.6%
Activity [6]: 100%
Activity [7]: 95.8%
Activity [8]: 99.4%

CC[C@H](Nc1ncnc2[nH]cnc12)c1nc2cccc(F)c2c(=O)n1-c1ccccc1
Activity [1]: 86.3%
Activity [2]: 93.9%
Activity [3]: 95.3%
Activity [4]: 95.2%
Activity [5]: 91.7%
Activity [6]: 97.3%
Activity [7]: 90.6%
Activity [8]: 98.7%

CC(C)Oc1ccc(-c2nn([C@@H](C)c3oc4ccc(F)cc4c(=O)c3-c3cccc(F)c3)c3ncnc(N)c23)cc1F [UMBRALISIB]
Activity [1]: 88.9%
Activity [2]: 94.5%
Activity [3]: 99.6%
Activity [4]: 96.4%
Activity [5]: 84.7%
Activity [6]: 85.4%
Activity [7]: 96.7%
Activity [8]: 99%
